Data reported in ChEMBL document CHEMBL1126077 (J Med Chem, 1992).

Key:
[1] = target: T1, Cholesterol side-chain cleavage enzyme, mitochondrial (Bos taurus, UniProt P00189); assay: Inhibition of bovine adrenal desmolase at 25 uM; settings: cattle; for Inhibition: 25 µM
T1 sequence (P00189 whole entry): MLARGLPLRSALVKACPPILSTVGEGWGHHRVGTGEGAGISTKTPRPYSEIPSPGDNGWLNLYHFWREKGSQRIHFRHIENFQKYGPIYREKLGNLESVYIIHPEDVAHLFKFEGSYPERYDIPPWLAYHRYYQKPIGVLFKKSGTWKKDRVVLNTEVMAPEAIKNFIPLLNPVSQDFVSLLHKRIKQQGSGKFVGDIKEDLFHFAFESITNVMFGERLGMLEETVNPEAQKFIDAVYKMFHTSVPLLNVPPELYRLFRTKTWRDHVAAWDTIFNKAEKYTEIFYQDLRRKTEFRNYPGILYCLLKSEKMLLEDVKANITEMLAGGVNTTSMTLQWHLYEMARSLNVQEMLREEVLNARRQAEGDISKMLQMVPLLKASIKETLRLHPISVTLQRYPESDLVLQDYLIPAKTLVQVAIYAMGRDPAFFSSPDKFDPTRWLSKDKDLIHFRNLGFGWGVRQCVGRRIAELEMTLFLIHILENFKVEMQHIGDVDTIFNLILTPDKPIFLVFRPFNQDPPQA

Aromatase = target: T2, Aromatase (Homo sapiens, UniProt P11511)
T2 sequence (P11511 whole entry): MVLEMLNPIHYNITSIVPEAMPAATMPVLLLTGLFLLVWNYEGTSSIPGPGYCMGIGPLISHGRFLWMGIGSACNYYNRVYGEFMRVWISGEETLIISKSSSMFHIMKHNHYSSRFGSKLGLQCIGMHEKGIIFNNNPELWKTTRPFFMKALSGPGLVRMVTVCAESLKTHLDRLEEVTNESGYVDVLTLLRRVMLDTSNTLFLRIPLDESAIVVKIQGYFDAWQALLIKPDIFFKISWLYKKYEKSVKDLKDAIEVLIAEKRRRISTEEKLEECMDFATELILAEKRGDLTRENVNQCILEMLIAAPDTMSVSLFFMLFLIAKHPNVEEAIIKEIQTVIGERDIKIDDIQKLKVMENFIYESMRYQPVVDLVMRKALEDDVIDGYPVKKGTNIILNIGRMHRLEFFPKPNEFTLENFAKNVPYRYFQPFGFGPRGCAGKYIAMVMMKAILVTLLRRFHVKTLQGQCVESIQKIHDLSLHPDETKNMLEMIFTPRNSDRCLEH
Description: Concentration inhibiting Aromatase

[2] = target: T1, Cholesterol side-chain cleavage enzyme, mitochondrial; assay: Inhibition of bovine adrenal desmolase

Row | SMILES | inhibition at 25 µM [1] [%] | IC50 (Aromatase) [µM] | IC50 [2] [µM] | Inhibition [1] [%]
1 | CC[C@@]1(c2ccc(N)cc2)CCC(=O)NC1=O | 36 |  |  | 
2 | CC[C@]1(c2ccc(N)cc2)CCC(=O)NC1=O | 67 |  |  | 
3 | Nc1ccc(C2(C3CCCC3)CCC(=O)NC2=O)cc1 (centres undefined) | 59 | 1.2 |  | 
4 | Nc1ccc(C2(C3CCCCC3)CCC(=O)NC2=O)cc1 (single isomer, unassigned; (+)) |  | 0.15 | 82 | 19
5 | Nc1ccc(C2(C3CCCCC3)CCC(=O)NC2=O)cc1 (single isomer, unassigned; (-)) |  | 4.6 |  | 39
6 | Nc1ccc(C2(C3CCCCC3)CCC(=O)NC2=O)cc1 (stereo in doubt; 2) |  | 0.3 | 67 | 31
7 | CCC1(c2ccc(N)cc2)CCC(=O)NC1=O (centres undefined) [AMINOGLUTETHIMIDE] | 57 |  | 29 | 
